Source: ChEMBL document CHEMBL3352030, “Evaluation of the cyclopentane-1,2-dione as a potential bio-isostere of the carboxylic acid functional group” (Bioorg Med Chem Lett, 2014)

Columns and labels:
[1] = biological target: T1, Thromboxane A2 receptor (Homo sapiens, UniProt P21731); assay: Inhibition of human TP receptor expressed in QBI-HEK 293A cells assessed as IP3 metabolite level after 1 hr by HTRF assay; type: functional, cell-based
T1 sequence (P21731 whole entry): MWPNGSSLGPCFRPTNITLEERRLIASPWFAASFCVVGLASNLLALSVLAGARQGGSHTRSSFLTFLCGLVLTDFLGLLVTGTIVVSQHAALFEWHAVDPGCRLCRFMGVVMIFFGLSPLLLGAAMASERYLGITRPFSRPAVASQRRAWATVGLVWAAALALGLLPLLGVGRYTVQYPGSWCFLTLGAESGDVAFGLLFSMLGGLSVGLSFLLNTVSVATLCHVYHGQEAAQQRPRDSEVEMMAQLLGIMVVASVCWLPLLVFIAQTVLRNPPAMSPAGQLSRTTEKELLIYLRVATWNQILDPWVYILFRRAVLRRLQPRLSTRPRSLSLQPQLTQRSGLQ

[2] = system: Plasma; assay: Stability in CD-1 mouse plasma at 1 uM after 1 hr by LC/MS/MS analysis; type: ADME, cell-free
[3] = Dissociation constant, pKa of the compound by potentiometric titration

O=C(O)CCc1cccc2c1CCC(NS(=O)(=O)c1ccc(Cl)cc1)C2 (stereo not given)
IC50 [1]: 0.0026 µM

O=C1CCC(Cc2cccc(CCNS(=O)(=O)c3ccc(Cl)cc3)c2)=C1O
IC50 [1]: 0.054 µM
Stability [2]: Stable

O=C1CC(c2cccc(CCNS(=O)(=O)c3ccc(Cl)cc3)c2)C=C1O (stereo not given)
IC50 [1]: 1.14 µM

O=C1CCC(Cc2ccc(Br)cc2)=C1O
pKa [3]: 8.6
